Experimental data published in article PMC5853648 (Biochemistry, 2017).
pIC50, pKd: −log10 of the molar value.

Legend:
CidC [1] = molecular target: T1, CidC (Staphylococcus aureus, UniProt Q6PST7); assay: ferricyanide reduction assay, absorbance […] nm; format: biochemical
T1 sequence (Q6PST7 2-579): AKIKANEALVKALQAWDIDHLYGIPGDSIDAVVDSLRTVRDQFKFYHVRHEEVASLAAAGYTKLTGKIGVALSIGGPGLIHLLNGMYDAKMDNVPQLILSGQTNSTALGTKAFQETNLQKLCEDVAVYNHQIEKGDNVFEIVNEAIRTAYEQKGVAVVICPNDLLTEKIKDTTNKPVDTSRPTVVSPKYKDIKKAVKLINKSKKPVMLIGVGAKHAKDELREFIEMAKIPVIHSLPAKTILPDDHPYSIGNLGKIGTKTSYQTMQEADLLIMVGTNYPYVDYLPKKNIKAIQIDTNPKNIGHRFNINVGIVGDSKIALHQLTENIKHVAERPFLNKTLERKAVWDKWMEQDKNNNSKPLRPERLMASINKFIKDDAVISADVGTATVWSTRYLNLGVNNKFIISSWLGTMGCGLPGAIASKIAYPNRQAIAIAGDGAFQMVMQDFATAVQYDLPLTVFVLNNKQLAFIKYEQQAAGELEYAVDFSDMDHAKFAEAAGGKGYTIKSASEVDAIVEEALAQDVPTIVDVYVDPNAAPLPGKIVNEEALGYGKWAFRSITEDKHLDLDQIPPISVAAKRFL

CidC [2] = molecular target: T1, CidC; assay: tryptophan fluorescence quenching titration; format: binding

| pIC50 (CidC [1]) | pKd (CidC [2]) | SMILES |
| --- | --- | --- |
| 2.00 |  | O=C(O)CC(O)(CC(=O)O)C(=O)O [citrate] |
|  | 6.52 | Cc1ncc(C[n+]2csc(CCO[P@](=O)(O)OP(=O)(O)O)c2C)c(N)n1 [TPP] |
